Legend:
Experiment in all cases: Dundee kinase panel
Assay type in all cases: biochemical
Conditions in all cases: for remaining activity at 1 µM: read-out: residual activity
MAP4K3 = molecular target: T1, MAP4K3 (Homo sapiens, UniProt Q8IVH8)
T1 construct: lines 1-140) and Reaction Biology
T1 sequence (Q8IVH8 1-894): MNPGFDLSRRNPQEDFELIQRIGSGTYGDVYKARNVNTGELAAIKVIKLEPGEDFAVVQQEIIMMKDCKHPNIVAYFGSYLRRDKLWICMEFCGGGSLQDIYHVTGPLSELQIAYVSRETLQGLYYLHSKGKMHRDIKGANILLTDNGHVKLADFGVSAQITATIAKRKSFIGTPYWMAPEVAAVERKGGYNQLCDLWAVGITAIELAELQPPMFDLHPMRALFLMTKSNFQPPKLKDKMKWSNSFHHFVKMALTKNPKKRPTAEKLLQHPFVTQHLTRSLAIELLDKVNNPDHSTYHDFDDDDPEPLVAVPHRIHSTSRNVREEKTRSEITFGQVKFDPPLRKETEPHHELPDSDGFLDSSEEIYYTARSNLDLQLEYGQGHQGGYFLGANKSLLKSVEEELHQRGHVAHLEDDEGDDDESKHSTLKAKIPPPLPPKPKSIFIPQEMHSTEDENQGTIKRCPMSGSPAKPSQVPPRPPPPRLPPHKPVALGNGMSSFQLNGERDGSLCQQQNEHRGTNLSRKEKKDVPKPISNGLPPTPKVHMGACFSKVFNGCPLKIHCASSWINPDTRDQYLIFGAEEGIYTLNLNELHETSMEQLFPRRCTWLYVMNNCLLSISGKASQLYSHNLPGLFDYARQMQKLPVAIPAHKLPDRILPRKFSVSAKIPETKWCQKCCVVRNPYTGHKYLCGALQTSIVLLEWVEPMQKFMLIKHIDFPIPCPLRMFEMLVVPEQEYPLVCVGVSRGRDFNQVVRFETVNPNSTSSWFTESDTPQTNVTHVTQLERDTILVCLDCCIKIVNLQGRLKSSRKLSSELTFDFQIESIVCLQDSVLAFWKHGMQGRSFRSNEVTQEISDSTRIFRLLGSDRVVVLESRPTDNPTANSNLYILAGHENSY
Experimental: (§1) Compounds were screened at 1 μM. For key hits, pIC50 values were then determined by HTRF as above. […] Stability in mouse and human liver microsomes was determined by Cyprotex.

TLK1 = molecular target: T2, TLK1 (Homo sapiens, UniProt Q9UKI8)
T2 construct: lines 1-140) and Reaction Biology
T2 sequence (Q9UKI8 1-766): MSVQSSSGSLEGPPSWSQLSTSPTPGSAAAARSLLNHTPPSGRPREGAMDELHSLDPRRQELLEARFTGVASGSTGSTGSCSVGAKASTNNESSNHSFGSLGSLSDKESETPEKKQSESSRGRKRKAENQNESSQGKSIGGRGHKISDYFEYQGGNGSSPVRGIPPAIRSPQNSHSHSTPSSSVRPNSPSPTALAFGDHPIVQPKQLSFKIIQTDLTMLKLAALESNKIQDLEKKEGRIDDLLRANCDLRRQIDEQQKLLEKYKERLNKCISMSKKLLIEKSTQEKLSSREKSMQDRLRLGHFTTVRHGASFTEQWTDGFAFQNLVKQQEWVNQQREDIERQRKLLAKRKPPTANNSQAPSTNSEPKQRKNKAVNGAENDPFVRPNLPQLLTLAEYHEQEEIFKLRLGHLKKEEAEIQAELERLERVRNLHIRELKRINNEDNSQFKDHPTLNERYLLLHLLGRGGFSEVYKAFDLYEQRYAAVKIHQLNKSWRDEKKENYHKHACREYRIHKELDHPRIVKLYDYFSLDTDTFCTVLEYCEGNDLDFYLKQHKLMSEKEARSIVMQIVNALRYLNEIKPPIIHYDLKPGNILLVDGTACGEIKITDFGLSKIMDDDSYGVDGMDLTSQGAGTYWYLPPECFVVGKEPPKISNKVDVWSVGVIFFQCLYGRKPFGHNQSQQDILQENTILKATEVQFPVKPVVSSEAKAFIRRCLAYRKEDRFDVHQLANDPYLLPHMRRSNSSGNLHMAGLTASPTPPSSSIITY
Experimental: as §1

MST3 = molecular target: T3, MST3 (Homo sapiens, UniProt Q9Y6E0)
T3 construct: lines 1-140) and Reaction Biology
T3 sequence (Q9Y6E0 whole entry): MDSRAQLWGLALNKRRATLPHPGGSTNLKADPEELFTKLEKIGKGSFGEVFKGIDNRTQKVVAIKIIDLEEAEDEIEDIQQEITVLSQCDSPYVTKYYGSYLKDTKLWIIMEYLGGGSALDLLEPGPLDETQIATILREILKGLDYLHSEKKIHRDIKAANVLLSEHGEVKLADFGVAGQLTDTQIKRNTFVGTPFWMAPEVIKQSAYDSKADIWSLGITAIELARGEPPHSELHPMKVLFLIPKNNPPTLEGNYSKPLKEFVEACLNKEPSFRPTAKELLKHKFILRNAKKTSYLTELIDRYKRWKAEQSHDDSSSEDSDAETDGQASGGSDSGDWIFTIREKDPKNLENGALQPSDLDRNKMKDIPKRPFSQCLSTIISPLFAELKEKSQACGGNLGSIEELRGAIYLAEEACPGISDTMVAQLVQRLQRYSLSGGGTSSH
Experimental: as §1

GCK = molecular target: T4, GCK (Homo sapiens, UniProt Q12851)
T4 construct: lines 1-140) and Reaction Biology
T4 sequence (Q12851 1-820): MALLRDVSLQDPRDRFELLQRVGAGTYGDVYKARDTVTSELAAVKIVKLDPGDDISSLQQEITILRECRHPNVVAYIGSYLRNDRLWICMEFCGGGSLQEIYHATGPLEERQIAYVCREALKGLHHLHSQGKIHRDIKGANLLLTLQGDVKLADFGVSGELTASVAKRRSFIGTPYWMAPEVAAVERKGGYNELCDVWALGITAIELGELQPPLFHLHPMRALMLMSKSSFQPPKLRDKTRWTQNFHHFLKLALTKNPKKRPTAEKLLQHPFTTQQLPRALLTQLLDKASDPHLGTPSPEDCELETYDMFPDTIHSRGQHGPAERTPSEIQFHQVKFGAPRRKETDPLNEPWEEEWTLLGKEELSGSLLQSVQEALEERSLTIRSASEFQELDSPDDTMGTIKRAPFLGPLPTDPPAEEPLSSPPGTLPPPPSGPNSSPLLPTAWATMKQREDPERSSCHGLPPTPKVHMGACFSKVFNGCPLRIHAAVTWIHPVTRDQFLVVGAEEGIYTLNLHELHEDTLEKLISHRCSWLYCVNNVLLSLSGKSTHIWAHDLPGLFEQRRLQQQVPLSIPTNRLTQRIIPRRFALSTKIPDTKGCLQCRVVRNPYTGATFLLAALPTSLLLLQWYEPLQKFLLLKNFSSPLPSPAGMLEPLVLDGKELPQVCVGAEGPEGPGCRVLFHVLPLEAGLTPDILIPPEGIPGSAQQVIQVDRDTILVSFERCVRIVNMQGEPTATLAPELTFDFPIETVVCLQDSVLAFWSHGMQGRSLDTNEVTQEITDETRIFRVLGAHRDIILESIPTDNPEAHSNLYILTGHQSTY
Experimental: as §1

O=C1Nc2ccc(I)cc2/C1=C/c1cc(Br)c(O)c(Br)c1 [GW5074]
remaining activity at 1 µM (MAP4K3): 31%
remaining activity at 1 µM (TLK1): 86%
remaining activity at 1 µM (MST3): 29%
remaining activity at 1 µM (GCK): 60%

Oc1ncnc2c1c(-c1ccccc1)cn2-c1ccccc1 [F1386-0303, 5,7-diphenyl-7H-pyrrolo[2,3-d]pyrimidin-4-ol]
remaining activity at 1 µM (MAP4K3): 84%
remaining activity at 1 µM (TLK1): 103%
remaining activity at 1 µM (MST3): 120%
remaining activity at 1 µM (GCK): 39%

O=C1Cc2c([nH]c3ccc(Br)cc23)-c2ccccc2N1 [Kenpaullone]
remaining activity at 1 µM (MAP4K3): 14%
remaining activity at 1 µM (TLK1): 95%
remaining activity at 1 µM (MST3): 67%
remaining activity at 1 µM (GCK): 95%

COCCOc1ccc(-c2cn(-c3ccccc3)c3nc[nH]c(=O)c23)cc1 [DMX-5804, 5-[4-(2-methoxy-ethoxy)-phenyl]-7-phenyl-3,7-dihydro-pyrrolo[2,3-d]pyrimidin-4-one]
remaining activity at 1 µM (MAP4K3): 41%
remaining activity at 1 µM (TLK1): 111%
remaining activity at 1 µM (MST3): 95%
remaining activity at 1 µM (GCK): 36%

Nc1ncc(C(=O)NC2CN(C(=O)C3CC3)C2)c2ccc(-c3cccc(F)c3)nc12 [GNE-495]
residual activity (MAP4K3; 1 μM): 7%
residual activity (TLK1; 1 μM): 77%
residual activity (MST3; 1 μM): 72%
residual activity (GCK; 1 μM): 18%
